In patent US4216128A, “Enkephalin analogues” (American Home Products Corporation, priority 1979, dated 1980):
Non-standard residues stand in square brackets, D forms with d. Residues, ends and D or L forms follow the SMILES beside them.

Legend:
[1] = test system: CF-1 mice; assay: phenylbenzoquinone induced writhing test (analgesia); assay type: in vivo
[2] = test system: opiate receptor; assay: relative displacement potency, procedure of Chang et al.; assay type: binding; settings: relative to morphine
[3] = peripheral administration; cited from earlier work
[4] = intravenous administration; cited from earlier work
[5] = test system: rats; settings: injection in the brain ventricle, fully reversible by naloxone; cited from earlier work
[6] = test system: mouse vas deferens; settings: cited from earlier work
[7] = test system: guinea pig ileum; settings: cited from earlier work
[8] = test system: opiate receptor; settings: brain homogenates; cited from earlier work
[9] = Coy et al.; cited from earlier work
[10] = intracerebroventricular; cited from earlier work

In the case of `CN[C@@H](Cc1ccc(O)cc1)C(=O)N[C@H](CS)C(=O)NCC(=O)N(C)[C@@H](Cc1ccccc1)C(=O)N[C@H](CC(N)=O)C(N)=O` [Example 4, N-Methyl-L-tyrosyl-D-cysteinyl-glycyl-N-methyl-L-phenylalanyl-D-asparagine amide], the “percent analgesia after oral administration” value ([1]; oral dose of 50 mg/kg, 30 minutes) was 10%, the “ED50 (analgesia, absence of writhing)” value ([1]; subcutaneous administration, at 15 minutes, mice) was 0.64 (0.29-1.4) mg/kg and the relative displacement potency [2] was “two”.
For `CSCC[C@H](NC(=O)[C@H](Cc1ccccc1)NC(=O)CNC(=O)[C@@H](C)NC(=O)[C@@H](N)Cc1ccc(O)cc1)C(N)=O` [Tyr-D-Ala-Gly-Phe-Met-amide], the “activity when administered peripherally” value [3] is listed as “inactive”.
For `CSCC[C@@H](NC(=O)[C@@H](N)Cc1ccc(O)cc1)C(=O)NCC(=O)N[C@@H](Cc1ccccc1)C(=O)N1CCC[C@H]1C(N)=O` [Tyr-D-Met-Gly-Phe-Pro-NH2] (H-Y[dM]GFP-NH2), the “antinociceptive potency relative to morphine” value [4] is listed as 5.5 times more potent than morphine.
For `CC(C)C[C@H](NC(=O)[C@H](Cc1ccccc1)NC(=O)CNC(=O)CNC(=O)[C@@H](N)Cc1ccc(O)cc1)C(=O)O` [leucine-enkephalin, H-Tyr-Gly-Gly-Phe-Leu-OH], the analgesia [5] is listed as “profound analgesia”.
For `CSCC[C@H](NC(=O)[C@H](Cc1ccccc1)NC(=O)CNC(=O)CNC(=O)[C@@H](N)Cc1ccc(O)cc1)C(=O)O` [methionine-enkephalin, H-Tyr-Gly-Gly-Phe-Met-OH], the “block of electrically evoked contractions” value [6] is listed as “block electrically evoked contractions”, the “block of electrically evoked contractions” value [7] is listed as “block electrically evoked contractions” and the “inhibition of stereospecific receptor binding of 3H-naloxone” value [8] is listed as “inhibit”. The analgesia [5] was “profound analgesia”.
In the case of D-Met^5 enkephalin, the “activity relative to Met enkephalin” value [9] is listed as “one tenth”.
For Tyr-D-Ala-Gly-Phe-D-Leu, the “activity when administered intracerebroventricularly” value [10] is listed as “activity”.
